Reference: ChEMBL document CHEMBL1122521, “Nucleic acid related compounds. 47. Synthesis and biological activities of pyrimidine and purine "acyclic" nucleoside analogues” (J Med Chem, 1984)
Values after ≈ are worked out from the molar mass of the structure shown.

Legend:
Assay type in all cases: functional
Human alphaherpesvirus 2 = experiment: Concentration required to reduce cytopathogenicity of Herpes simplex virus type 2 (strain G) by 50% in primary rabbit kidney (PRK) cells
L1210 [1] = experiment: Inhibitory concentration required to reduce cell growth of Murine Leukemia L1210 cells; settings: Mus musculus, read-out: ID50 (the source's name)
L1210 [2] = experiment: Inhibitory concentration required to reduce [3H-methyl]-dThd C incorporation into cellular DNA by 50% in Murine Leukemia L1210 cells; settings: Mus musculus, read-out: ID50 (the source's name)
[3] = Inhibitory concentration required to reduce incorporation of 2-deoxythymidine (dThd) into DNA of Primary Rabbit kidney (PRK) cell cultures; settings: Oryctolagus cuniculus, read-out: ID50 (the source's name)
[4] = Inhibitory concentration required to reduce incorporation of 2-deoxyuridine (dUrd) into DNA of Primary Rabbit kidney (PRK) cell cultures; settings: Oryctolagus cuniculus, read-out: ID50 (the source's name)
Human alphaherpesvirus 1 = experiment: Concentration required to reduce cytopathogenicity of Herpes simplex virus type 1 (strain KOS) by 50% in primary rabbit kidney (PRK) cells
L1210 [5] = experiment: Inhibitory concentration required to reduce [3H1',2']dUrd incorporation into cellular DNA by 50% in Murine Leukemia L1210 cells; settings: Mus musculus, read-out: ID50 (the source's name)
L1210 [6] = experiment: Inhibitory concentration required to reduce [14C-2]-dUrd incorporation into cellular DNA by 50% in Murine Leukemia L1210 cells; settings: Mus musculus, read-out: ID50 (the source's name)
[7] = Ratio of ID50 for dThd or dUrd incorporation to ID50 for HSV-1, HSV-2 or VV(whatever was lowest)
[8] = tested on: Vesicular stomatitis virus; experiment: Concentration required to reduce cytopathogenicity of Vesicular stomatitis virus by 50% in primary rabbit kidney (PRK) cells
[9] = Inhibitory concentration required to reduce 2-deoxyuridine ([3H-1'2']dUrd) incorporation into DNA of Primary Rabbit kidney (PRK) cell cultures; settings: Oryctolagus cuniculus, read-out: ID50 (the source's name)
L1210 [10] = experiment: Inhibitory concentration required to reduce [3H1',2']dUrd incorporation into cellular DNA by 50 %; settings: Mus musculus, read-out: ID50 (the source's name)

| SMILES | ID50 (Human alphaherpesvirus 2) [µg/mL] | IC50 (L1210 [1]) [µg/mL] | IC50 (L1210 [2]) [µg/mL] | IC50 [3] [µg/mL] | IC50 [4] [µg/mL] | ID50 (Human alphaherpesvirus 1) [µg/mL] | IC50 (L1210 [5]) [µg/mL] | IC50 (L1210 [6]) [µg/mL] | Antiviral index [7] | ID50 [8] [µg/mL] | IC50 [9] [µg/mL] | IC50 (L1210 [10]) [µg/mL] |
| --- | --- | --- | --- | --- | --- | --- | --- | --- | --- | --- | --- | --- |
| O=c1ccn(COCCO)c(=O)[nH]1 | >400 | > 1000 | > 1000 | > 400 | > 400 | >400 | > 1000 | – | – | – | – | – |
| O=c1[nH]c(=O)n([C@H]2C[C@H](O)[C@@H](CO)O2)cc1F [FLOXURIDINE] | – | 0.001 (≈ 0.00406 µM) | 80 (≈ 325 µM) | – | – | – | – | 0.003 (≈ 0.0122 µM) | – | – | – | – |
| CC(=O)OCCOCn1cc(/C=C/Br)c(=O)[nH]c1=O | >400 | > 1000 | > 1000 | > 200 | > 400 | >400 | > 1000 | – | – | – | – | – |
| CC(=O)OCCOCn1cnc2c(Cl)nc(N)nc21 | 20 (≈ 70 µM) | 91 (≈ 319 µM) | > 1000 | 55 (≈ 193 µM) | – | 20 (≈ 70 µM) | > 1000 | – | 2.7 | >400 | 71 (≈ 249 µM) | – |
| O=c1[nH]c(=O)n(COCCO)cc1I | >400 | > 1000 | > 1000 | > 400 | > 400 | >400 | > 1000 | – | – | – | – | – |
| CN(C)c1ncnc2c1ncn2COCCO | >400 | > 500 | > 500 | 400 (≈ 1690 µM) | > 350 | >400 | > 500 | – | < 0.9 | – | – | – |
| Cc1nc2c(O)nc(N)nc2n1COCCO | 0.5 (≈ 2.09 µM) | 323 (≈ 1350 µM) | > 500 | > 400 | > 400 | 0.5 (≈ 2.09 µM) | > 500 | – | > 800 | >400 | – | – |
| OCCOCn1cnc2c(O)ncnc21 | >400 | > 1000 | > 1000 | > 100 | – | >400 | > 1000 | – | – | – | > 100 | – |
| Nc1ncnc2c1ncn2COCCO | 10 (≈ 47.8 µM) | 19 (≈ 90.8 µM) | > 1000 | 49 (≈ 234 µM) | 22 (≈ 105 µM) | 10 (≈ 47.8 µM) | > 1000 | – | 2.2 | >400 | – | – |
| Nc1nc(O)c2nc(N3CCCCC3)n(COCCO)c2n1 | 150 (≈ 486 µM) | > 500 | > 500 | 250 (≈ 811 µM) | 333 (≈ 1080 µM) | 70 (≈ 227 µM) | > 500 | – | 3.5 | >400 | – | – |
| Nc1nc2c(nc(N)n2COCCO)c(=O)[nH]1 | 0.3 (≈ 1.25 µM) | > 500 | 500 (≈ 2080 µM) | 290 (≈ 1210 µM) | 200 (≈ 833 µM) | 0.7 (≈ 2.91 µM) | – | – | 667 | >100 | – | 500 (≈ 2080 µM) |
| CC(=O)OCCOCn1cnc2c(Cl)nc(Cl)nc21 | >10 | 12 (≈ 39.3 µM) | 412 (≈ 1350 µM) | 10 (≈ 32.8 µM) | 2 (≈ 6.55 µM) | 2 (≈ 6.55 µM) | 98 (≈ 321 µM) | – | 1 | – | – | – |
| O=c1[nH]c(=O)n(COCCO)cc1F | >400 | > 1000 | > 1000 | > 400 | > 400 | >400 | > 1000 | – | – | – | – | – |
| CNc1nc2c(=O)[nH]c(N)nc2n1COCCO | 3 (≈ 11.8 µM) | > 500 | > 500 | > 400 | > 400 | 7 (≈ 27.5 µM) | – | – | 133 | >400 | – | > 500 |
| Cc1cn(COCCO)c(=O)[nH]c1=O | >400 | > 1000 | > 1000 | > 400 | > 400 | >400 | > 1000 | – | – | – | – | – |
| Nc1nc(Cl)c2ncn(COCCO)c2n1 | 20 (≈ 82.1 µM) | 69 (≈ 283 µM) | > 1000 | 50 (≈ 205 µM) | – | 2 (≈ 8.21 µM) | > 1000 | – | 25 | >400 | > 100 | – |
| Nc1nc2c(nc(O)n2COCCO)c(=O)[nH]1 | 25 (≈ 104 µM) | > 500 | > 500 | 48 (≈ 199 µM) | – | 15 (≈ 62.2 µM) | – | – | 3.2 | >400 | ≥ 100 | > 500 |

| SMILES | ID50 (Human alphaherpesvirus 2) [µg/mL] | IC50 (L1210 [1]) [µg/mL] | IC50 (L1210 [2]) [µg/mL] | IC50 [3] [µg/mL] | IC50 [4] [µg/mL] | ID50 (Human alphaherpesvirus 1) [µg/mL] | IC50 (L1210 [5]) [µg/mL] | IC50 (L1210 [6]) [µg/mL] | Antiviral index [7] | ID50 [8] [µg/mL] | IC50 [9] [µg/mL] | IC50 (L1210 [10]) [µg/mL] |
| --- | --- | --- | --- | --- | --- | --- | --- | --- | --- | --- | --- | --- |
| Nc1nc(=O)n(COCCO)cc1[N+](=O)[O-] | >400 | 71 (≈ 308 µM) | > 500 | > 400 | > 400 | >400 | 374 (≈ 1620 µM) | – | – | – | – | – |
| Nc1nc(=O)ccn1COCCO | >400 | > 500 | > 500 | > 400 | > 400 | >400 | > 500 | – | – | – | – | – |
| CC(=O)OCCOCn1cnc2c(Cl)ncnc21 | 70 (≈ 259 µM) | 44 (≈ 163 µM) | 475 (≈ 1750 µM) | 60 (≈ 222 µM) | 62 (≈ 229 µM) | 70 (≈ 259 µM) | 233 (≈ 861 µM) | – | 3 | >400 | – | – |
| O=c1[nH]c(=O)n(COCCO)cc1Cl | >400 | > 1000 | > 1000 | > 400 | > 400 | >400 | > 1000 | – | – | – | – | – |
| CN(C)c1nc2c(=O)[nH]c(N)nc2n1COCCO | 250 (≈ 932 µM) | > 500 | > 500 | > 400 | > 400 | 30 (≈ 112 µM) | – | – | 13 | >400 | – | > 500 |
| Nc1nc2c(nc(I)n2COCCO)c(=O)[nH]1 | 0.4 (≈ 1.14 µM) | 39 (≈ 111 µM) | > 1000 | ≥ 350 | ≥ 250 | 0.4 (≈ 1.14 µM) | – | – | 625 | >400 | – | > 1000 |
| Nc1nc2c(ncn2COCCO)c(=O)[nH]1 [ACYCLOVIR] | 0.04 (≈ 0.178 µM) | 13 (≈ 57.7 µM) | 367 (≈ 1630 µM) | 12 (≈ 53.3 µM) | – | 0.05 (≈ 0.222 µM) | 50 (≈ 222 µM) | – | 300 | >400 | 13 (≈ 57.7 µM) | – |
| Nc1nc2c(nc(Cl)n2COCCO)c(=O)[nH]1 | >400 | 350 (≈ 1350 µM) | > 1000 | > 400 | – | 70 (≈ 270 µM) | > 1000 | – | > 6 | – | > 400 | – |
| Nc1ccn(COCCO)c(=O)n1 | 100 (≈ 540 µM) | 675 (≈ 3650 µM) | > 1000 | > 400 | > 400 | 70 (≈ 378 µM) | > 1000 | – | > 5 | >400 | – | – |
| O=c1[nH]c(=O)n([C@H]2C[C@H](O)[C@@H](CO)O2)cc1/C=C/Br [BRIVUDINE] | 2 (≈ 6 µM) | – | – | 73 (≈ 219 µM) | 27 (≈ 81 µM) | 0.007 (≈ 0.021 µM) | – | – | 3860 | >400 | – | – |
| O=c1[nH]c(=O)n(COCCO)cc1/C=C/Br | >400 | > 1000 | > 1000 | > 200 | > 400 | >400 | > 1000 | – | – | – | – | – |
| O=c1cc(O)ccn1COCCO | >400 | > 1000 | > 1000 | > 400 | > 400 | >400 | > 1000 | – | – | – | – | – |
| O=c1[nH]c(=O)n([C@H]2C[C@H](O)[C@@H](CO)O2)cc1I [IDOXURIDINE] | 0.3 (≈ 0.847 µM) | 61 (≈ 172 µM) | 4.3 (≈ 12.1 µM) | 2 (≈ 5.65 µM) | 0.3 (≈ 0.847 µM) | 0.1 (≈ 0.282 µM) | – | 0.82 (≈ 2.32 µM) | 3 | >400 | – | – |
| Nc1nc2c(nc(Br)n2COCCO)c(=O)[nH]1 | 0.5 (≈ 1.64 µM) | 355 (≈ 1170 µM) | > 500 | 340 (≈ 1120 µM) | 225 (≈ 740 µM) | 0.5 (≈ 1.64 µM) | – | – | 450 | >400 | – | > 500 |
| O=c1[nH]c(=O)n(COCCO)cc1[N+](=O)[O-] | >400 | 447 (≈ 1930 µM) | > 1000 | > 400 | > 400 | >400 | > 1000 | – | – | – | – | – |
| O=c1[nH]c(=O)n(COCCO)cc1Br | >400 | > 1000 | > 1000 | > 400 | > 400 | >400 | > 1000 | – | – | – | – | – |
